Test results: patent US20010036929A1, “Xrcc3 is required for assembly of Rad51-complexes in vivo” (ARCH Development Corporation., priority 1998, published 2001)

Tests used:
CHO cells = details: 1 μM cisplatin for 1 hour; cited from earlier work
xrcc3− tumors = experiment: Mouse xenograft tumor model, xrcc3- tumors, intratumoral cisplatin; assay type: in vivo; details: xrcc3− tumors in nude mice; 0.1 ml 100 μg/ml cisplatin injected into tumors on days 1-5
Procedure: (§1) The sensitivity of XRCC3 defective cells to cis-platinum is also reflected in the ability of the drug to cause regression and cure of tumors in a mouse xenograft tumor model. Groups of 12 nude mice were injected in the hind limb with 5X105 XRCC3+ cells or xrcc3− cells. XRCC3+ lines (essentially equivalent to the PXR3 lines described above) and isogenic xrcc3− lines (equivalent to the irs1SF line described above), were injected into nude mice. Tumors were allowed to grow for 2 weeks (volumes of 300-500 mm3). On days 1-5 tumors were injected with 0.1 ml 100 μg/ml cisplatin in PBS or with the same volume of PBS alone. […] Tumor volumes were measured at 3-5 day intervals starting on the first day of treatment. Fractional tumor volumes were calculated as the volume of the tumor on a particular day divided by the volume of the tumor on the day of the first treatment. The fractional tumor volumes in mice injected with XRCC3+ positive cells increased regardless of whether they received cisplatin treatment or the control treatment; the final fractional tumor volume for both the treated and untreated groups was about 5 on average. […] Fractional tumor volume was about 5 on average for the untreated cells and about 0.05 on average for the tumors treated with cisplatin.

[1] = test system: Rad51 foci in CHO AA8 cells; experiment: Cisplatin-induced Rad51 focus formation (a-Rad51 immunostaining) in AA8 cells; assay type: cell-based, Chinese hamster; details: for Induction of Rad51 foci: then 3 hours before fixation
Procedure: (§2) Cisplatin treatment: For dose response studies, the cultures were washed twice in serum-free medium and then incubated for 1 hour in serum-free medium containing varying concentrations of cisplatin (Bristol Laboratories). After the incubation, the dishes were washed three times in serum-free medium and complete medium was added. Cultures were then placed at 37° C. for 3 hours at which time a single-cell suspension was obtained with trypsin/EDTA and the cells were prepared for immunostaining. For time course studies, cell cultures were washed twice in serum-free medium and incubated for one hour in serum-free medium containing 10 μM cisplatin. After incubation, the cells were washed and incubated in complete medium. At the appropriate times the cells were harvested by trypsin treatment and prepared for immunostaining. Immunostaining: Fixed cells were transferred to slides using a Cytospin 2 (Shandon, Pittsburgh, Pa.) centrifuge. Slides were washed twice in Tris-buffered saline (TBS) and incubated for 15 minutes in TBS 1% bovine serum albumin BSA at room temperature. The wash was removed and anti-Rad51 antibody in TBS 1% BSA was applied. The slides were incubated overnight at 4° C. in a humidified chamber. The slides were washed twice in TBS and secondary antibody (fluorescein-conjugated goat anti-rabbit; Molecular Probes, Inc., Eugene, Oreg.) was applied at a 1:1000 dilution in the dark. The slides were incubated at room temperature in the dark for 1 hour. The slides were washed twice with TBS and stained with DAPI (0.1 μg/ml in TBS) for 5 minutes. The slides were dried and coverslips mounted with Vectashield mounting medium (Vector Laboratories Inc., Burlingame, Calif.). Microscopy: Immunostained samples were examined via standard epifluorescence microscopy using a Ziess Photoscope III through a 100X objective. Digital images were obtained with a CCD camera (Imagepoint, Photometrics Inc., Tucson, Ariz.). A single focal plane was documented for each nucleus. Therefore, the numbers presented are less than the total number of foci per nucleus. […]

XRCC3+ tumors = experiment: Mouse xenograft tumor model, XRCC3+ tumors, intratumoral cisplatin; assay type: in vivo; details: XRCC3+ tumors in nude mice; 0.1 ml 100 μg/ml cisplatin injected into tumors on days 1-5
Procedure: as §1

[2] = test system: Rad51 foci in CHO CXR3 cells; experiment: Cisplatin-induced Rad51 focus formation (a-Rad51 immunostaining) in CXR3 cells; assay type: cell-based, Chinese hamster; details: foci per nucleus, single focal plane
Procedure: as §2, with “dark.” for “dark. The slides were incubated at room temperature in the dark for 1 hour. The slides were washed twice with TBS and stained with DAPI (0.1 μg/ml in TBS) for 5 minutes. The slides were dried and coverslips mounted with Vectashield mounting medium (Vector Laboratories Inc., Burlingame, Calif.). Microscopy: Immunostained samples were examined via standard epifluorescence microscopy using a Ziess Photoscope III through a 100X objective. Digital images were obtained with a CCD camera (Imagepoint, Photometrics Inc., Tucson, Ariz.). A single focal plane was documented for each nucleus. Therefore, the numbers presented are less than the total number of foci per nucleus.”

[3] = test system: Rad51 foci in CHO PXR3 cells; experiment: Cisplatin-induced Rad51 focus formation (a-Rad51 immunostaining) in PXR3 cells; assay type: cell-based, Chinese hamster; details: foci per nucleus, single focal plane
Procedure: as §2, with “dark.” for “dark. The slides were incubated at room temperature in the dark for 1 hour. The slides were washed twice with TBS and stained with DAPI (0.1 μg/ml in TBS) for 5 minutes. The slides were dried and coverslips mounted with Vectashield mounting medium (Vector Laboratories Inc., Burlingame, Calif.). Microscopy: Immunostained samples were examined via standard epifluorescence microscopy using a Ziess Photoscope III through a 100X objective. Digital images were obtained with a CCD camera (Imagepoint, Photometrics Inc., Tucson, Ariz.). A single focal plane was documented for each nucleus. Therefore, the numbers presented are less than the total number of foci per nucleus.”

[4] = test system: Rad51 foci in CHO irs1SF cells; experiment: Cisplatin-induced Rad51 focus formation (a-Rad51 immunostaining) in irs1SF cells; assay type: cell-based, Chinese hamster
Procedure: as §2, with “dark.” for “dark. The slides were incubated at room temperature in the dark for 1 hour. The slides were washed twice with TBS and stained with DAPI (0.1 μg/ml in TBS) for 5 minutes. The slides were dried and coverslips mounted with Vectashield mounting medium (Vector Laboratories Inc., Burlingame, Calif.). Microscopy: Immunostained samples were examined via standard epifluorescence microscopy using a Ziess Photoscope III through a 100X objective. Digital images were obtained with a CCD camera (Imagepoint, Photometrics Inc., Tucson, Ariz.). A single focal plane was documented for each nucleus. Therefore, the numbers presented are less than the total number of foci per nucleus.”

N.N.[Cl][Pt][Cl] [cisplatin]
Cells that survive (CHO cells): 50-80% | Fractional tumor volume (volume on day / volume on day of first treatment), average (xrcc3− tumors): about 0.05 | Induction of Rad51 foci ([1]; 1 μM cisplatin for 1 hour): Significant induction of foci | Induction of Rad51 foci ([1]; 10 μM cisplatin for 1 hour): Near maximum induction of foci | Rad51 foci induced by cisplatin treatment ([1]; AA8 cells, foci per nucleus, single focal plane): up to 30 foci | Final fractional tumor volume (volume on day / volume on day of first treatment), average (XRCC3+ tumors): about 5 | Rad51 foci induced by cisplatin treatment [2]: up to 30 foci | Rad51 foci induced by cisplatin treatment [3]: up to 30 foci | Induction of Rad51 foci by cisplatin treatment [4]: no induction of foci was detected
